Assay results published in PubChem BioAssay (NCI).
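96-well plates; 48 h exposure; 5 concentrations. Endpoints by linear interpolation between flanking doses. Not reached: highest tested concentration assigned. TGI: total growth inhibition.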

Legend:
Experiment in all cases: inhibition of tumour cell growth, NCI panel, 48 h
EKVX NSCLC = test system: EKVX NSCLC
HOP-62 NSCLC = test system: HOP-62 NSCLC
HCC-2998 colon = test system: HCC-2998 colon
SF-295 CNS = test system: SF-295 CNS
M19-MEL melanoma = test system: M19-MEL melanoma
DMS 114 small cell lung = test system: DMS 114 small cell lung
SNB-78 CNS = test system: SNB-78 CNS
786-0 renal = test system: 786-0 renal
NCI-H23 lung = test system: NCI-H23 lung
RXF 393 renal = test system: RXF 393 renal
RXF-631 renal = test system: RXF-631 renal
SK-OV-3 ovarian = test system: SK-OV-3 ovarian
IGROV1 ovarian = test system: IGROV1 ovarian
UACC-62 melanoma = test system: UACC-62 melanoma
NCI-H226 lung = test system: NCI-H226 lung
NCI-H522 lung = test system: NCI-H522 lung
DMS 273 small cell lung = test system: DMS 273 small cell lung
SR leukemia = test system: SR leukemia
HOP-18 NSCLC = test system: HOP-18 NSCLC
UACC-257 melanoma = test system: UACC-257 melanoma
A549 NSCLC = test system: A549 NSCLC
SW-620 colon = test system: SW-620 colon
HT29 colon = test system: HT29 colon
DLD-1 colon = test system: DLD-1 colon
HCT-116 colon = test system: HCT-116 colon
OVCAR-8 ovarian = test system: OVCAR-8 ovarian
UO-31 renal = test system: UO-31 renal
RPMI-8226 leukemia = test system: RPMI-8226 leukemia
SK-MEL-2 melanoma = test system: SK-MEL-2 melanoma
M14 melanoma = test system: M14 melanoma
ACHN renal = test system: ACHN renal
LXFL 529 NSCLC = test system: LXFL 529 NSCLC
KM20L2 colon = test system: KM20L2 colon
COLO 205 colon = test system: COLO 205 colon
SN12C renal = test system: SN12C renal
MOLT-4 leukemia = test system: MOLT-4 leukemia
K-562 leukemia = test system: K-562 leukemia
OVCAR-5 ovarian = test system: OVCAR-5 ovarian
HOP-92 NSCLC = test system: HOP-92 NSCLC
HCT-15 colon = test system: HCT-15 colon
SF-539 CNS = test system: SF-539 CNS
KM12 colon = test system: KM12 colon
U251 CNS = test system: U251 CNS
MALME-3M melanoma = test system: MALME-3M melanoma
OVCAR-4 ovarian = test system: OVCAR-4 ovarian
OVCAR-3 ovarian = test system: OVCAR-3 ovarian
SNB-19 CNS = test system: SNB-19 CNS
SNB-75 CNS = test system: SNB-75 CNS
SK-MEL-28 melanoma = test system: SK-MEL-28 melanoma
CCRF-CEM leukemia = test system: CCRF-CEM leukemia
SF-268 CNS = test system: SF-268 CNS
NCI-H460 lung = test system: NCI-H460 lung
HL-60(TB) leukemia = test system: HL-60(TB) leukemia
SK-MEL-5 melanoma = test system: SK-MEL-5 melanoma

Q: What does the source list for `O=C1c2ccccc2C(=O)N1CCn1nc(-c2ccccc2)cc(-c2ccccc2)c1=O`?
A: TGI (EKVX NSCLC): > 100 µM; TGI (HOP-62 NSCLC): > 100 µM; TGI (HCC-2998 colon): > 100 µM; TGI (SF-295 CNS): > 100 µM; TGI (M19-MEL melanoma): > 100 µM; TGI (DMS 114 small cell lung): > 100 µM; TGI (SNB-78 CNS): > 100 µM; TGI (786-0 renal): > 100 µM; TGI (NCI-H23 lung): > 100 µM; TGI (RXF 393 renal): > 100 µM; TGI (RXF-631 renal): > 100 µM; TGI (SK-OV-3 ovarian): > 100 µM; TGI (IGROV1 ovarian): > 100 µM; TGI (UACC-62 melanoma): > 100 µM; TGI (NCI-H226 lung): > 100 µM; TGI (NCI-H522 lung): > 100 µM; TGI (DMS 273 small cell lung): > 100 µM; TGI (SR leukemia): 69.8 µM; TGI (HOP-18 NSCLC): > 100 µM; TGI (UACC-257 melanoma): > 100 µM; TGI (A549 NSCLC): > 100 µM; TGI (SW-620 colon): > 100 µM; TGI (HT29 colon): > 100 µM; TGI (DLD-1 colon): > 100 µM; TGI (HCT-116 colon): > 100 µM; TGI (OVCAR-8 ovarian): > 100 µM; TGI (UO-31 renal): > 100 µM; TGI (RPMI-8226 leukemia): 36.9 µM; TGI (SK-MEL-2 melanoma): > 100 µM; TGI (M14 melanoma): > 100 µM; TGI (ACHN renal): > 100 µM; TGI (LXFL 529 NSCLC): > 100 µM; TGI (KM20L2 colon): > 100 µM; TGI (COLO 205 colon): > 100 µM; TGI (SN12C renal): > 100 µM; TGI (MOLT-4 leukemia): > 100 µM; TGI (K-562 leukemia): > 100 µM; TGI (OVCAR-5 ovarian): > 100 µM; TGI (HOP-92 NSCLC): 96.8 µM; TGI (HCT-15 colon): > 100 µM; TGI (SF-539 CNS): > 100 µM; TGI (KM12 colon): > 100 µM; TGI (U251 CNS): > 100 µM; TGI (MALME-3M melanoma): > 100 µM; TGI (OVCAR-4 ovarian): > 100 µM; TGI (OVCAR-3 ovarian): > 100 µM; TGI (SNB-19 CNS): > 100 µM; TGI (SNB-75 CNS): > 100 µM; TGI (SK-MEL-28 melanoma): > 100 µM; TGI (CCRF-CEM leukemia): > 100 µM; TGI (SF-268 CNS): > 100 µM; TGI (NCI-H460 lung): > 100 µM; TGI (HL-60(TB) leukemia): 39 µM; TGI (SK-MEL-5 melanoma): > 100 µM
